Measurements published in paper PMC6043506, “Investigating molecular interactions between oxidized neuroglobin and cytochrome c” (Scientific Reports, 2018).
Like-named read-outs stand apart in the source and are kept apart here.

Columns and labels:
Cyt c = biological target: T1, Cyt c (Equus caballus, UniProt P00004); assay: SPR qualitative comparison of peptide bindings to immobilized Cyt c; assay type: binding, Equine heart; conditions: for SPR signal compared to PhNgb1-Wt (qualitative) / binding to Cyt c (qualitative) / binding to Cyt c compared to PhNgb2-Wt (qualitative): SPR sensorgrams, HBS-P+1% DMSO, pH 7.4, 60 s injection; for SPR signal compared to PhNgb1-Wt (qualitative) / binding to Cyt c (qualitative): Fig. 4A; for binding to Cyt c (qualitative): repeated at least two times; for binding to Cyt c compared to PhNgb2-Wt (qualitative): Fig. 4C
T1 construct: Equine heart Cyt c and dimethyl sulfoxide (DMSO) were purchased from Sigma Aldrich; purchased Sigma Aldrich; host or cells: equine heart (tissue-derived, as the product name says)
Protocol: The peptides were dissolved in 100% DMSO and further diluted in the running buffer (10 mM HEPES pH 7.4, 150 mM NaCl, and 0.05% v/v surfactant P20 supplemented at 1% v/v DMSO) and injected over the Cyt c-immobilized surface at various concentrations.
Equine heart Cyt c and dimethyl sulfoxide (DMSO) were purchased from Sigma Aldrich. The amine coupling kit, Series S sensor chip CM5, and HBS-P+ buffer (0.1 M HEPES, 1.5 M NaCl, and 0.5% v/v surfactant P20) were purchased from GE Healthcare.
The SPR experiments were performed using a Biacore T200 SPR instrument (GE Healthcare). Cyt c, which was used as a ligand, was immobilized onto the CM5 chip up to a level of ~9000 Response Units (RU) in the presence of 10 mM sodium acetate buffer at pH 5.5. A standard amine coupling chemistry according to the manufacturer’s recommended protocol (GE Healthcare) was used to immobilize Cyt c. HBS-P+ buffer was diluted 10X to 10 mM HEPES pH 7.4, 150 mM NaCl, and 0.05% v/v surfactant P20 (HBS-P) in ddH2O and filtered through a […] polystyrene membrane filter. HBS-P was used as the immobilization running buffer. The peptides were used as analytes to inject over the Cyt c-immobilized CM5 chip surface in various concentrations in an HBS-P+1% DMSO buffer. HBS-P+1% DMSO was used as the running buffer in the analyte-ligand binding experiments. […] All analytes were injected in duplicate in each cycle. The kinetics experiments were repeated for three times. All qualitative experiments, including inhibition experiments were repeated at least two times with the wild type peptides injected as positive controls in each experiment.
VMD[34] was used to analyze and visualize the structure and simulation trajectories. The total interaction energy was calculated using NAMD energy plugin available in VMD. Each frame in the NVT simulation trajectory was saved at every 200 ps. An atomic distance of 3.5 Å and angle cutoff of 30 degrees were used to trace hydrogen bonding and the same atomic distance of 3.5 Å was used as the cut off to analyze interfacial contacts and salt bridges. For contacts analysis, only residues that show contacts for more than 1000 frames were considered. Carma[38] was used to determine the radius of gyration (Rg) and to perform PCA as well as PCA-based cluster analyses. GraphPad prism (GraphPad Software, Inc.) was used to generate the graphs. The bonding distances between D73 (in hNgb, atom OD2) and K72 (in Cyt c, atom NZ), T77 (in hNgb, atom OG1) and K72 (in Cyt c, atom NZ), E87 (in hNgb, atom OE2) and K27 (in Cyt c, atom NZ) as well as between E86 (in hNgb, atom OE2) and K27 (in Cyt c, atom NZ) were plotted. All graphs obtained from analyses of MD simulation trajectories were averaged with 25 neighboring points and 4th order smoothing polynomial using the GraphPad prism software. Biacore T200 evaluation software version 1.0 (GE Healthcare) was used to analyze the SPR sensorgrams.

[1] = system: PhNgb1-Wt binding to Cyt c; assay: SPR inhibition experiment: PhNgb1-Wt binding to immobilized Cyt c in presence of PCyt c; set-up: species or system Equine heart; conditions: mixture of PhNgb1-Wt and PCyt c in 1:2 molar ratio, Fig. 4B, 60 s injection
Protocol: We conducted SPR experiments with mutated peptides. […] (hNgb) and […] (hNgb) together take part in binding to […] (Cyt c), making a strong bonding as predicted by simulations. We could not perform quantitative investigations (via determination of KD values) for the mutated peptides due to solubility issues at higher concentrations. […] This experiment further confirms the involvement of the predicted amino acid […]) in the hNgb-Cyt c complex formation. […] The SPR experiments were performed using a Biacore T200 SPR instrument (GE Healthcare). Cyt c, which was used as a ligand, was immobilized onto the CM5 chip up to a level of ~9000 Response Units (RU) in the presence of 10 mM sodium acetate buffer at pH 5.5. A standard amine coupling chemistry according to the manufacturer's recommended protocol (GE Healthcare) was used to immobilize Cyt c. HBS-P+ buffer was diluted 10X to 10 mM HEPES pH 7.4, 150 mM NaCl, and 0.05% v/v surfactant P20 (HBS-P) in ddH2O and filtered through a […] polystyrene membrane filter. HBS-P was used as the immobilization running buffer. The peptides were used as analytes to inject over the Cyt c-immobilized CM5 chip surface in various concentrations in an HBS-P+1% DMSO buffer. HBS-P+1% DMSO was used as the running buffer in the analyte-ligand binding experiments. […] All analytes were injected in duplicate in each cycle. […]

ferric Cyt c = conditions: SPR, nanopore-based nanopipettes, ITC; ferric hNgb and ferric Cyt c; cited from earlier work
Description: Electrochemical impedance spectroscopy measurements have also confirmed the formation of an hNgb-Cyt c complex. Computational docking is useful to investigate the complex formation between proteins. Several computational docking studies have bee ...

caspase 9 activation = conditions: binding of Ngb to Cyt c alone, no redox reaction required, cited from earlier work
Description: Cytochrome c (Cyt c), which is another heme protein[13], is a known Ngb binding partner[12],[14]. This mitochondrial heme protein triggers cell apoptosis during apoptotic cell signaling. During ischemic insults, the cellular apoptotic pathway is activated, leading to the release of ferric Cyt c, which is an essential component of the apoptosome, into the cytoplasm[16]–[18]. […] Importantly, this K72 residue takes part in interactions of Cyt c with apoptotic protease-activation factor-1[31]. […] There ...

T1 sequence (P00004 whole entry): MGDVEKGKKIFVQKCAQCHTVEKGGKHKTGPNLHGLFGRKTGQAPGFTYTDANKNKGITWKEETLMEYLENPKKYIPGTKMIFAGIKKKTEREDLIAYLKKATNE

Molecule	SPR signal compared to PhNgb1-Wt (qualitative) (Cyt c)	binding to Cyt c (qualitative) (Cyt c)	binding to Cyt c compared to PhNgb2-Wt (qualitative) (Cyt c)	other results
LENPKKYIP [PCyt c, peptide with amino acids L68 to P76 in Cyt c]	–	–	–	binding of PCyt c to immobilized Cyt c (qualitative) (Cyt c; SPR): does not bind to immobilized Cyt c; inhibition of PhNgb1-Wt binding (qualitative) [1]: diminished signal as compared to PhNgb1-Wt signal
MLVIAAAVTNVED [PhNgb1-M2]	weaker SPR signals as compared to SPR signals for PhNgb1-Wt	bind to Cyt c	–	–
MLVIDAAVANVED [PhNgb1-M1]	weaker SPR signals as compared to SPR signals for PhNgb1-Wt	bind to Cyt c	–	–
SSLAAYLAS [PhNgb2-M2]	–	–	comparable binding	–
SSLEAYLAS [PhNgb2-M1]	–	–	stronger binding	–
hNgb: ferric human Ngb; six-coordinated heme protein; PDB ID 4MPM (Chain B) (protein, UniProt Q9NPG2 1-151, looked up, ferric heme) Neuroglobin: MERPEPELIRQSWRAVSRSPLEHGTVLFARLFALEPDLLPLFQYNCRQFSSPEDCLSSPEFLDHIRKVMLVIDAAVTNVEDLSSLEEYLASLGRKHRAVGVKLSSFSTVGESLLYMLEKCLGPAFTPATRAAWSQLYGAVVQAMSRGWDGE	–	–	–	affinity to ferric Cyt c (ferric Cyt c): micromolar affinity; effect on caspase 9 activation (caspase 9 activation): enough to suppress caspase-9 activation; effect on caspase 9 activation (caspase 9 activation; listed as Ngb): sufficient to block the Cyt c-induced caspase 9 activation
